Consider six compounds from patent publication US20220106282A1, “TREATMENT FOR BREAST CANCER, INCLUDING TRIPLE-NEGATIVE BREAST CANCER” (priority 2018, published 2022).

Values joined by “and” are separate entries in the source; they are usually repeats but may differ in a detail not shown here. Identical values can stand only once. Marks after values point to notes of the source that are not given here.

The subject of series [1] is MCF-7 breast cancer cells. The following applies: RU 2619457; cited from earlier work.
The next series relates to ovariectomized rats. The experiment in a line: Biochemical parameters of ovariectomized rats. It counts as in vivo, rat. The following applies: ovariectomised rats, EE 0.1 mg/kg bw.
In series [2] the test system is uterine body. As to the kind of experiment: Hormonal effect: uterine body weight in tumor-bearing mice. The following applies: Tamoxifen-1 group, 4 mg/kg. It counts as in vivo, mouse. As to the method:
To estimate the hormonal effect of the medicament, the weight of the uterine body without uterine horns was measured (Table 9).

Assay in series [3]: as above
It is filed as in vivo, mouse. The following applies: Tamoxifen-1 group, 4 mg/kg.

Series [4] deals with uterine body. Described as above. It counts as in vivo, mouse. The following applies: Tamoxifen-1 group, 4 mg/kg; estrous phase E.
Series [5] has as its system breast tumors in female FVB mice transgenic for HER-2/neu. As to the kind of experiment: Antitumor activity on model of multiple breast tumors in HER-2/neu transgenic mice. The following applies: for Average total volume of tumors in mice (M) / Average volume of tumors present at the beginning of the experiment (M): i.g. daily. Here is the method:
Two adenocarcinoma subtypes can be differentiated, in particular ER+, PR−, and ER−, PR− [2].
The study was carried out in female FVB mice transgenic for HER-2/neu by conventional category; the strain was obtained from the mouse bank Charles River Laboratories (Italy). At the beginning of the study the animals were 21-41 weeks old having weight of 25 to 30 g.
The study medicament was administered i.g. using a metal atraumatic gavage (with the procedure corresponds to the oral route of administration in clinical settings). The medicament was administered in a single daily dose (20 mg/kg of body weight) and 5-fold daily dose of 100 mg/kg of body weight. Ex tempore solutions of the medicament for administration were prepared in olive oil (refined olive oil supplemented with unrefined extra virgin olive oil available under Global Village “Clasico” trademark, lot L:183351116, expiry date 26 Apr. 2020, BAIEO, Spain). The administered volume was 0.1 ml per 10 g of a mouse body weight (0.2 ml of a ready-to-use formulation for a mouse of 20 g). The medicament administration was started 24 hours after the randomization. The duration of the administration course was 27-28 days.
This dose corresponds to a human daily dose of 20 mg/kg.
The control groups were given the olive oil (placebo).
The evaluation criteria included the clinical observation data, animals body weights, time of death (if applicable), tumor growth over time, pathomorphological examination data (verification of a neoplasm during autopsy, assessment of toxic effects by macroscopic presentation of changes in the internal organs).
The animals body weights were recorded before the first administration of the medicaments and then twice per week using a verified high-speed electronic laboratory balance Ohaus Scout Pro (USA) with a maximum load of 2000 g and a measurement step of 0.1 g.
Macroscopically detectable tumor nodes were measured in animals once per week during weighing process. Two linear dimensions including the largest one and the largest rectangular to the former were recorded for each of the nodes. The largest dimension was taken as a length (a) and the second dimension as a width (b) of the tumor nodes. A tumor volume was calculated by the expression as follows: […]
The efficacy of the therapy was assessed by recording a change in the average tumor volume, tumor growth inhibition (TGI), and the average total tumor volumes and its change over time in each of the mice.
The percent of tumor growth inhibition was calculated by the expression as follows:
TGI=(Vctrl−Vexp)/Vctrl×100(%),
where Vctrl is an average tumor volume in a control group, and Vexp is an average tumor volume in an experimental group.
The primary data from individual forms were transferred to Microsoft Excel 2007 books. The group arithmetic average (M) and standard deviation (m) were calculated for all quantitative data. The statistical analysis was performed using the statistical software GraphPad Prism 6.0. The differences between the groups were assessed using ANOVA regression analysis and the Fisher's exact test.

For series [6] the following is noted: first class: high solubility, high permeability, second class: low solubility; cited from earlier work.
The test system of the next series is uterus. The conditions noted are these: literature / prior art; cited from earlier work.
The mark [7] stands for this setting: Tamoxifen group, dose 1.4 mg/kg, Day 6.
Setting [8] is: Tamoxifen group, dose 1.4 mg/kg, Day 13.
Where [9] appears, read: Tamoxifen group, dose 1.4 mg/kg, Day 20.
The mark [10] stands for this setting: Tamoxifen group, dose 1.4 mg/kg, Day 27.
Where [11] appears, read: Tamoxifen group, dose 1.4 mg/kg, Day −1.
The mark [12] stands for this setting: Tamoxifen group, dose 1.4 mg/kg, Day 27 vs Day −1.
[13] abbreviates: Tamoxifen-1 group, 4 mg/kg i.g. daily, end of study.

For `C[C@H]1Oc2cc(OS(N)(=O)=O)ccc2C2=C1C1=CCC[C@H](OS(N)(=O)=O)[C@@]1(C)CC2` [3,17αβ-disulfamoyloxy-7β-methyl-D-homo-6-oxa-estra-1,3,5(10), 8,14-pentaen], the “Growth of MCF-7 breast cancer cells” value in series [1] is “inhibitor of the growth”.

Take `C#C[C@]1(O)CC[C@H]2[C@@H]3CCc4cc(O)ccc4[C@H]3CC[C@@]21C` [EE, 17α-ethinyl estradiol, reference compound]: the Uterus weight with ovariectomized rats was found to be 164 ± 11 mg/100 g bw.

In the case of `CC/C(=C(\c1ccccc1)c1ccc(OCCN(C)C)cc1)c1ccccc1` [Tamoxifen, reference compound], the Uterine body weight with uterine body [2] (all mice) is 32 ± 2 mg; in the series on uterine body [2] (estrous phase D), 34 mg; in the series on uterine body [4], 31 ± 2 mg. Besides, the results for the Body weight in series [3] (all mice), in series [3] (estrous phase D) and in series [3] (estrous phase E) were 28.2 ± 1.0 g, 30.5 g and 28.0 ± 1.0 g, respectively. The “Average total volume of tumors in mice (M)” value in series [5] (setting [7]) is reported as 0.76 cm^3; in series [5] (setting [8]) it was 0.88 cm^3; in series [5] (setting [9]), 1.38 cm^3; in series [5] (setting [10]), 1.68 cm^3; in series [5] (setting [11]) it was 0.66 cm^3. In addition, the “Average volume of tumors present at the beginning of the experiment (M)” value was 0.26 cm^3 in series [5] (setting [7]); 0.3 cm^3 in series [5] (setting [8]); 0.47 cm^3 in series [5] (setting [9]); 0.58* cm^3 in series [5] (setting [10]); 0.23 cm^3 in series [5] (setting [11]). For the same compound, the “TGI (average total tumor volume)” value is listed as −12% in series [5] (setting [7]); −32% in series [5] (setting [8]); 9% in series [5] (setting [9]); 18% in series [5] (setting [10]); −57% in series [5] (setting [11]). Also, the “TGI (average tumor volume)” value in series [5] (setting [7]) was 13%; in series [5] (setting [8]), 46%; in series [5] (setting [9]), 29%; in series [5] (setting [11]) it was −28%. Also, the “% of change from baseline (average total tumor volume)” value in series [5] (setting [12]) amounted to 155%. For the same compound, the “% of change to the initial value (average tumor volume)” value in series [5] (setting [12]) worked out at 152%. In addition, in series [5] (Tamoxifen-1 group, 4 mg/kg i.g. daily, 4 mg/kg), the “Average volume of new tumors at the end of the observation period (M)” value was 0.16±0.05 cm^3 and 0.16 cm^3. Moreover, the “Absolute number of new tumors” value in series [5] (setting [13]) is 21. Also, the “Frequency of tumor stabilizations” value in series [5] (setting [13]) was 10%. Moreover, in series [5] (Tamoxifen-1 group, end of observation), the “Average volume of new tumors, % less than that of the control group” value was 52%.

As to `CC(C)(C#N)c1cc(Cn2cncn2)cc(C(C)(C)C#N)c1` [anastrazole], in series [6], the BCS class result is recorded as “first class”.

`C[C@]12CC[C@@H]3c4ccc(OS(N)(=O)=O)cc4CC[C@H]3[C@@H]1CCC2=O` [estrone sulfamate]: the Uterotropic activity entry in the series on uterus is reported as “strong uterotropic activity”.

Take `N#Cc1ccc(C(c2ccc(C#N)cc2)n2cncn2)cc1` [letrozole]: the BCS class result in series [6] is given as “first class”.
